These results are taken from patent US20120172438A1, “GLYCYRRHETINIC ACID ESTER DERIVATIVE SYNTHESIS METHOD AND DEOXOGLYCYRRHETINIC ACID ESTER COMPOUND” (priority 2009, published 2012).

The test system of assay [1] is BCG + LPS induced liver injury. The assay can be described thus: BCG+LPS induced liver injury in mice. In kind it is in vivo, Kunming mice. The conditions noted are these: 5.85 mg/kg gastric infusion, 7 days.
Assay [2] deals with acetaminophen induced liver injury. The assay can be described thus: Acetaminophen induced liver injury in mice. It counts as in vivo. The conditions noted are these: 5.85 mg/kg gastric infusion, 10 days. The protocol:
Ethyl 11-deoxy-18α-glycyrrhetinate: provided by traditional Chinese medicine laboratory, R&D center of Jiangsu Chia Tai Tianqing Pharmaceutical Co., Ltd. Bifendate pills: produced by Beijing Union Pharmaceutical factory. Daily dosage of human is 45 mg, used as the positive control medicine. Acetaminophen: produced by Jinzhou biochemical pharmaceutical factory. All medicines were prepared to desired concentrations with physiological saline according to the requirement of experiment. AST, ALT Kit: product of Nanjing Jiancheng bioengineering research institute.
60 mice were randomly divided into 6 groups: the normal control group, Bifendate group (positive medicine group), model control group, various doses of ethyl 11-deoxy-18α-glycyrrhetinate groups (240, 120, 60 mg/kg). After the animals were adaptively fed for 3 days, animals in each group were administered the medicines by gastric infusion for 10 days (one time/day). Animals in the normal control group and model group were administered 0.2 ml/mouse of physiological saline. 6 hours after the last administration, animals in each group, except the animals in normal control group, were intraperitoneally injected 400 mg kg-1 acetaminophen. After 12 hours, blood was taken by orbital bleeding. Activities of alanine aminotransferase (ALT), aspartate aminotransferase (AST) were measured. And T test of groups was performed, see table 7;

Assay [3] relates to D-Galn induced acute liver injury. The assay can be described thus: D-Galn induced acute liver injury mouse model. In kind it is in vivo, ICR male mice. The conditions noted are these: Table 2 experiment, 7 days. The method, then:
1. Comparison of therapeutic effects of ethyl 11-deoxy-18α-glycyrrhetinate and compound glycyrrhizin injection on ICR male mouse models of the D-Galn induced acute liver injury
Methods: 60 ICR male mice were randomly divided into 6 groups of 10 mice in each group: the model group, compound glycyrrhizin injection group (60 mg/kg), compound glycyrrhizin gastric infusion group (240 mg /kg), high dose of ethyl 11-deoxy-18α-glycyrrhetinate group (240 mg/kg), middle dose of ethyl 11-deoxy-18α-glycyrrhetinate group (120 mg/kg), low dose of ethyl 11-deoxy-18α-glycyrrhetinate group (60 mg/kg). […] The mice in model group were administered equal amount of 0.5% CMC-Na by gastric infusion.

Assay [4] concerns TAA induced acute liver injury. Briefly: TAA induced acute liver injury mouse model. It counts as in vivo, ICR male mice. The arrangement: Average grade of hepatocyte necrosis: scale not given here. The conditions noted are these: 240 mg/kg IG. The protocol: 50 ICR male mice were randomly divided into 5 groups of 10 mice in each group: the model group, diammonium glycyrrhizinate group (240 mg/kg), high dose of ethyl 11-deoxy-18α-glycyrrhetinate group (240 mg/kg), middle dose of ethyl 11-deoxy-18α-glycyrrhetinate group (120 mg/kg), and low dose of ethyl 11-deoxy-18α-glycyrrhetinate group (60 mg/kg). The mice in model group were administered equal amount of 0.5% CMC-Na by IG.

For assay [5], the system named is carrageenan-induced rat paw edema. The assay can be described thus: Carrageenan-induced rat paw swelling. It counts as in vivo, male SD rats. The conditions noted are these: 10 mg/kg gastric infusion. The method, then:
Rat paw edema was induced by injecting carrageenan, and we observed the swelling to evaluate the anti-inflammatory effect. Wherein:
• Animals: male SD rats, 150-180 g; • Inflammatory Agent: carrageenan; • Test Medicine: ethyl 11-deoxy-18α-glycyrrhetinate was dissolved in 1% CMC-Na to get the desired concentration; • Positive Control Medicine: indomethacin was dissolved in 1% CMC-Na to get the desired concentration;
50 rats were randomly divided into 5 groups of 10 rats in each group: the model group, positive control group (administering indomethacin 10 mg/kg), various doses of the test medicine groups (30, 60, 120 mg/kg). The animals in each group were administered continuously for 3 days. Before the last administration, the volumes of the left hind feet of the rats were measured by micropipette method. Then the animals were administered the test medicines or CMC-Na by gastric infusion. 1 hour later, freshly prepared carrageenan was injected subcutaneously into left hind feet of the rats according to the dosage of 0.05 ml/paw by using a 0.25 ml syringe and NO. 4 needle. The volume of left hind feet of the rats was measured by the method mentioned above at time points of 1, 3, 4, 5 and 7 hours after administration, each point 2 times, and the average values were calculated. The difference of these values between before and after inflammation was called swelling degree.
Data was presented as x±s. T test of the average of two samples was used to compare the experimental data of each group. P<0.05 or P<0.01 was regarded to be statistically significant.

Each structure is given as a SMILES string. Marks after values point to notes of the source that are not given here.

As for `COC(=O)c1cc(OC)c2c(c1-c1c(C(=O)OC)cc(OC)c3c1OCO3)OCO2` [Bifendate, reference compound], the ALT in assay [1] worked out at 110.5 ± 11.9 U/L; in assay [2], 134.6 ± 12.9 U/L. The AST in assay [1] is given as 152.3 ± 41.6 U/L; in assay [2], 162.3 ± 31.7 U/L.
Regarding `CC1(C)[C@@H](O[C@H]2O[C@H](C(=O)O)[C@@H](O)[C@H](O)[C@H]2O[C@@H]2O[C@H](C(=O)O)[C@@H](O)[C@H](O)[C@H]2O)CC[C@]2(C)[C@H]3C(=O)C=C4[C@@H]5C[C@@](C)(C(=O)O)CC[C@]5(C)CC[C@@]4(C)[C@]3(C)CC[C@@H]12.N.N` [Diammonium glycyrrhizinate, diammonium glycyrrhizinate, reference compound], in assay [3] (60 mg/kg IP), the ALT is on record as 383 ± 393 U/ml, the “ALT Inhibition %” value is on record as 80%, the AST stood at 308 ± 389 U/ml and the “AST Inhibition %” value came out at 73%. In assay [3] (240 mg/kg IG), the ALT is recorded as 993 ± 479 U/ml, the “ALT Inhibition %” value is 49%, the AST stood at 566 ± 291 U/ml and the “AST Inhibition %” value is given as 50%. In addition, in assay [4], the ALT is given as 1568 ± 721 U/ml, the “ALT Inhibition %” value is on record as 31%, the AST is on record as 1039 ± 623 U/ml and the “AST Inhibition %” value was determined as 40%. In addition, the “Average grade of hepatocyte necrosis” value in assay [4] was 1.3**. Moreover, in assay [4] (N=10), the “Grade of hepatocyte necrosis 0 (number of mice)” value was determined as 0, the “Grade of hepatocyte necrosis 1 (number of mice)” value turned out to be 7, the “Grade of hepatocyte necrosis 2 (number of mice)” value was determined as 3 and the “Grade of hepatocyte necrosis 3 (number of mice)” value is on record as 0. The “Grade of hepatocyte necrosis 4 (number of mice)” value in assay [4] (N=10) is 0.
Consider `COc1ccc2c(c1)c(CC(=O)O)c(C)n2C(=O)c1ccc(Cl)cc1` [Indomethacin, indomethacin, reference compound], for which the “Swelling degree of the feet after inflammation” value in assay [5] (1 h) was determined as 0.13 ± 0.05 mL; in assay [5] (3 h), 0.17 ± 0.07 mL; in assay [5] (4 h), 0.24 ± 0.09 mL; in assay [5] (5 h), 0.22 ± 0.06 mL; in assay [5] (7 h), 0.16 ± 0.05 mL.
